The source of these data is PubChem BioAssay (NCI).

Among the test systems are SK-MEL-5 melanoma; CCRF-CEM leukemia; NCI/ADR-RES ovarian; SR leukemia; OVCAR-5 ovarian; CAKI-1 renal; NCI-H23 lung; TK-10 renal; HCC-2998 colon; HS 578T breast; OVCAR-4 ovarian; SK-MEL-28 melanoma; SK-MEL-2 melanoma.
Assay in all cases: NCI tumour cell line growth inhibition, 48 h

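Test compounds were applied to cells in 96-well plates for 48 hours at 5 doses. The concentration for full growth arrest is given as TGI.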

For `Cc1ccc(C2=Nn3c(nc4sc5c(c4c3=O)CCCC5)SC2)cc1`, the TGI in the assay on SK-MEL-5 melanoma, in the assay on CCRF-CEM leukemia, with NCI/ADR-RES ovarian, with SR leukemia, with OVCAR-5 ovarian and with CAKI-1 renal was more than 100 µM each time. In addition, the TGI in the assay with NCI-H23 lung, with TK-10 renal, with HCC-2998 colon, in the assay on HS 578T breast, with OVCAR-4 ovarian and in the assay with SK-MEL-28 melanoma was more than 100 µM throughout.

Regarding `CC1(C)N([O-])[N+](=O)C1(Br)c1ccccc1` (stereo unspecified), the TGI with SK-MEL-5 melanoma, in the assay with CCRF-CEM leukemia, in the assay with NCI/ADR-RES ovarian, with SR leukemia, in the assay with OVCAR-5 ovarian and in the assay with CAKI-1 renal was more than 100 µM each time. The TGI in the assay with SK-MEL-2 melanoma, in the assay on NCI-H23 lung, in the assay on TK-10 renal, in the assay on HCC-2998 colon, with HS 578T breast and in the assay with OVCAR-4 ovarian was more than 100 µM in each case. In addition, the TGI in the assay on SK-MEL-28 melanoma is more than 100 µM.

On to `COc1ccc2c(c1)C1c3ccccc3CCN1CCC2` (stereo unspecified), for which the TGI in the assay on SK-MEL-5 melanoma, in the assay with CCRF-CEM leukemia, in the assay with NCI/ADR-RES ovarian, in the assay with SR leukemia, in the assay on OVCAR-5 ovarian and in the assay on CAKI-1 renal was more than 100 µM throughout. Also, the TGI with SK-MEL-2 melanoma is 70.8 µM; in the assay on NCI-H23 lung, more than 100 µM; in the assay with TK-10 renal, more than 100 µM; in the assay on HCC-2998 colon it was 63.5 µM; in the assay with HS 578T breast, more than 100 µM; in the assay on OVCAR-4 ovarian, more than 100 µM. Also, the TGI in the assay with SK-MEL-28 melanoma is more than 100 µM.

Consider `O=[N+]([O-])c1cc2ccc1OCc1cccc(n1)COc1ccc(cc1[N+](=O)[O-])C=NCCCCCCCCN=C2`, for which the TGI in the assay with SK-MEL-5 melanoma, in the assay with CCRF-CEM leukemia, in the assay with NCI/ADR-RES ovarian, in the assay on SR leukemia, in the assay with OVCAR-5 ovarian and with CAKI-1 renal was more than 100 µM each time. The TGI with SK-MEL-2 melanoma, in the assay on NCI-H23 lung, in the assay with TK-10 renal, in the assay with HCC-2998 colon, in the assay with HS 578T breast and with OVCAR-4 ovarian was more than 100 µM in each case. The compound also showed a TGI in the assay on SK-MEL-28 melanoma of more than 100 µM.

As to `Nc1ncnc2c1ncn2[C@@H]1C[C@H](NO)[C@@H](O)[C@H]1O`, the TGI in the assay with SK-MEL-5 melanoma, in the assay with CCRF-CEM leukemia, in the assay with NCI/ADR-RES ovarian, in the assay with SR leukemia, with OVCAR-5 ovarian and in the assay with SK-MEL-2 melanoma was more than 100 µM in each case. In addition, the TGI in the assay on NCI-H23 lung, in the assay on TK-10 renal, in the assay on HCC-2998 colon, in the assay on HS 578T breast, in the assay with OVCAR-4 ovarian and in the assay on SK-MEL-28 melanoma was more than 100 µM each time.

Turning to `COC(=O)/C=C/c1ccc2c(c1)[C@H](C(=O)OC)[C@@H](c1ccc(O)cc1)O2`, the TGI with SK-MEL-5 melanoma is 28.1 µM; in the assay with CCRF-CEM leukemia, 78 µM; in the assay on NCI/ADR-RES ovarian it was more than 100 µM; with SR leukemia, 45.8 µM; in the assay on OVCAR-5 ovarian it was more than 100 µM; with CAKI-1 renal, more than 100 µM. Besides, the TGI in the assay with SK-MEL-2 melanoma was 31.2 µM; in the assay on NCI-H23 lung it was more than 100 µM; with TK-10 renal it was more than 100 µM; with HCC-2998 colon it was 59.4 µM; with HS 578T breast it was 96.4 µM; with OVCAR-4 ovarian it was more than 100 µM. Further, in the assay on SK-MEL-28 melanoma, the TGI was more than 100 µM.

With `CCOC(=O)CON=c1c2ccccc2ccc2ccccc12`, the TGI with SK-MEL-5 melanoma, in the assay with CCRF-CEM leukemia, in the assay on NCI/ADR-RES ovarian, in the assay with SR leukemia, in the assay with OVCAR-5 ovarian and in the assay on CAKI-1 renal was more than 100 µM in each case. The TGI in the assay on SK-MEL-2 melanoma, in the assay on NCI-H23 lung, in the assay on TK-10 renal, with HCC-2998 colon, in the assay on HS 578T breast and in the assay on OVCAR-4 ovarian was more than 100 µM throughout. For the same compound, the TGI in the assay on SK-MEL-28 melanoma was more than 100 µM.

For `COc1ccc(C(c2cc(OC)c(OC)c(OC)c2)N2C(=O)CCC2C(=O)O)cc1` (stereo unspecified), the TGI with SK-MEL-5 melanoma, in the assay with CCRF-CEM leukemia, in the assay with NCI/ADR-RES ovarian, in the assay on SR leukemia, in the assay on OVCAR-5 ovarian and in the assay with CAKI-1 renal was more than 100 µM each time. Also, the TGI with SK-MEL-2 melanoma, with NCI-H23 lung, with TK-10 renal, with HCC-2998 colon, with HS 578T breast and with OVCAR-4 ovarian was more than 100 µM in each case. The compound further registered a TGI in the assay on SK-MEL-28 melanoma of more than 100 µM.

Regarding `CC(C)N(C(=O)C12C3(C(=O)C(C)(C)C)C4C5(C#N)C3C1(C(=O)C(C)(C)C)C5C42C(=O)C(C)(C)C)C(C)C` (stereo unspecified), the TGI with SK-MEL-5 melanoma, in the assay with CCRF-CEM leukemia, in the assay on NCI/ADR-RES ovarian, with SR leukemia, with OVCAR-5 ovarian and with CAKI-1 renal was more than 100 µM throughout. Further, the TGI in the assay on SK-MEL-2 melanoma, in the assay with NCI-H23 lung, with TK-10 renal, in the assay with HCC-2998 colon, with HS 578T breast and in the assay with OVCAR-4 ovarian was more than 100 µM throughout. This compound gave a TGI in the assay with SK-MEL-28 melanoma of more than 100 µM.

In the case of `Cn1c(-c2cccs2)cc(-c2ccsc2)c1-c1cccs1`, the TGI in the assay with CCRF-CEM leukemia, in the assay on NCI/ADR-RES ovarian, with SR leukemia, with OVCAR-5 ovarian, in the assay with CAKI-1 renal and in the assay with NCI-H23 lung was more than 100 µM in each case. In addition, the TGI with TK-10 renal, in the assay on HCC-2998 colon, in the assay on HS 578T breast, in the assay with OVCAR-4 ovarian and in the assay on SK-MEL-28 melanoma was more than 100 µM in each case.
